# Source: patent US11634434B2, “Bifunctional alpha-synuclein binding agents and uses thereof” (University of Saskatchewan, priority 2016, dated 2023)
# Molecular target: T1, alpha-synuclein (Homo sapiens, UniProt P37840)
# Test: Isothermal titration calorimetry (ITC) binding to alpha-synuclein; as to Bind to N and C?: key: Y indicates yes; N indicates no
# Conditions: Table 2
# Experimental: (§1) Nanopore analysis and isothermal titration calorimetry were performed as described previously.^21,54
row,Compound,# Binding sites
1,Cn1c(=O)c2c(ncn2CCN2CCCC2c2cccnc2)n(C)c1=O (racemic) [Compound C7-2-N],1
2,CN(CCCCCCCc1nc2c(c(=O)n(C)c(=O)n2C)n1C)C(=N)NC(=N)N.Cl [Compound C8-7-M],2
3,Cn1c(=O)c2c(ncn2CCCCNC2CCc3ccccc32)n(C)c1=O (stereo not shown) [Compound C7-4-I],1
4,Cn1c(=O)c2c(ncn2CCCCCCCCNC2CCc3ccccc32)n(C)c1=O (stereo not shown) [Compound C7-8-I],0.5
5,"NC1CCc2c(F)cccc21 (stereo not shown) [4-Fluoro-indan-1-yl-amine, reference compound]",0.5
6,Cn1c(=O)c2c(ncn2CCCCN2CCCC2c2cccnc2)n(C)c1=O (racemic) [Compound C7-4-N],1
7,Cn1c(=O)c2c(ncn2CCn2cnc3c2c(=O)n(C)c(=O)n3C)n(C)c1=O [Compound C7-2-C7],1

# Same assay, conditions: Table 2, ITC
row,Compound,Ka [M⁻¹]
1,Cn1c(=O)c2c(ncn2CCN2CCCC2c2cccnc2)n(C)c1=O (racemic) [Compound C7-2-N],50000
2,CN(CCCCCCCc1nc2c(c(=O)n(C)c(=O)n2C)n1C)C(=N)NC(=N)N.Cl [Compound C8-7-M],640000
3,Cn1c(=O)c2c(ncn2CCCCNC2CCc3ccccc32)n(C)c1=O (stereo not shown) [Compound C7-4-I],5e+06
4,Cn1c(=O)c2c(ncn2CCCCCCCCNC2CCc3ccccc32)n(C)c1=O (stereo not shown) [Compound C7-8-I],2e+07
5,Cn1c(=O)c2c(ncn2CCCCN2CCCC2c2cccnc2)n(C)c1=O (racemic) [Compound C7-4-N],3e+06
6,Cn1c(=O)c2c(ncn2CCn2cnc3c2c(=O)n(C)c(=O)n3C)n(C)c1=O [Compound C7-2-C7],30000

# Same assay, conditions: Table 2, ITC; read-out: Ka (converted)
row,Compound,Kd [µM]
1,"NC1CCc2c(F)cccc21 (stereo not shown) [4-Fluoro-indan-1-yl-amine, reference compound]",0.333

# Same assay, conditions: binds to both N and C portions of alpha-synuclein
row,Compound,Bind to N and C?
1,Cn1c(=O)c2c(ncn2CCN2CCCC2c2cccnc2)n(C)c1=O (racemic) [Compound C7-2-N],Y
2,CN(CCCCCCCc1nc2c(c(=O)n(C)c(=O)n2C)n1C)C(=N)NC(=N)N.Cl [Compound C8-7-M],Y
3,Cn1c(=O)c2c(ncn2CCCCNC2CCc3ccccc32)n(C)c1=O (stereo not shown) [Compound C7-4-I],Y
4,Cn1c(=O)c2c(ncn2CCCCCCCCNC2CCc3ccccc32)n(C)c1=O (stereo not shown) [Compound C7-8-I],Y
5,"NC1CCc2c(F)cccc21 (stereo not shown) [4-Fluoro-indan-1-yl-amine, reference compound]",Y
6,Cn1c(=O)c2c(ncn2CCCCN2CCCC2c2cccnc2)n(C)c1=O (racemic) [Compound C7-4-N],Y
7,Cn1c(=O)c2c(ncn2CCn2cnc3c2c(=O)n(C)c(=O)n3C)n(C)c1=O [Compound C7-2-C7],Y

# Tested on: yeast strain 2AS (2 copies of AS-GFP gene)
# Test: not given
# Format: cell-based
# Conditions: 1 micromolar compound + 100 micromolar galactose
# Experimental: (§2) Third, the drugs were assayed in a yeast model of Parkinson's Disease, which expresses an alpha-synuclein-Green Fluorescent Protein (AS-GFP) construct under the control of a galactose promoter.
# Construction of the 1AS and 2AS strains has been described in detail previously.^55 Strains were grown in YPD supplemented with 30 μg/ml of all amino acids. The OD600 was adjusted to 0.05 in drop-out media (no uracil) at 30° C. Drugs were dissolved in methanol at 0.01 micromolar, 0.1 micromolar, 1 micromolar or 10 micromolar followed by addition of 100 micromolar or 5 mM galactose to a final volume of 10 mL.
row,Compound,growth of 2AS yeast
1,"C=C(C)[C@H]1Cc2c(ccc3c2O[C@@H]2COc4cc(OC)c(OC)cc4[C@@H]2C3=O)O1 [rotenone, reference compound]",significant reduction of growth
2,CC(N)Cc1ccccc1 (stereo not shown) [amphetamine],significant reduction of growth
3,"CN1CCC[C@H]1c1cccnc1 (racemic) [(R,S)-nicotine, reference compound]",rate of growth which is similar to that shown by the WT strain
4,"C[n+]1ccc(-c2cc[n+](C)cc2)cc1 [paraquat, reference compound]",significant reduction of growth
5,"NC1CCc2ccccc21 (racemic) [(R,S)-1-aminoindan, reference compound]",rate of growth which is similar to that shown by the WT strain

# Tested on: WT yeast
# Test: Yeast growth curves (OD600), toxicity of drugs on WT yeast
# Format: cell-based
# Design: effect on growth of WT yeast: dose or concentration left out as unconfirmed
# Conditions: no alpha-synuclein
row,Compound,effect on growth of WT yeast
1,CC(N)Cc1ccccc1 (stereo not shown) [amphetamine],no evidence of toxicity
2,"C[n+]1ccc(-c2cc[n+](C)cc2)cc1 [paraquat, reference compound]",no evidence of toxicity

# Tested on: male Sprague-Dawley rats with increased alpha-synuclein expression
# Test: Forced swim test in ASIA-treated rats
# Format: in vivo, rat
# Conditions: ASIA + compound 3 mg/kg
# Experimental: male Sprague-Dawley rats are used (200 g-300 g). All animals are handled ethically following approved protocols. For the first round of studies, rats are divided into five treatment groups:
# Rats are subjected to 7-day chronic injection of 3 mg/kg of each test compound, and a forced swim test is conducted after the seventh day to measure motor deficits. […] For a second round of studies, rats are divided into four treatment groups, and the same experiments were repeated:
# The forced swim test is carried out by immersing the rat in water that is sufficiently deep to force the rat to swim. The forced swim test is scored based on the following criteria:
# Vigor and success are measures of motor function. Immobility is thought to be a measure of depression.^59 Based on videos of the forced swim test, the amount of time that each rat was motionless was calculated as a form of scoring depression for each treatment. Statistical analysis was carried out using an ordinary one-way ANOVA and Tukey multiple comparisons test.
row,Compound,immobility in forced swim test
1,"NC1CCc2ccccc21 (racemic) [(R,S)-1-aminoindan, reference compound]",partially reversed

# Same assay, conditions: ASIA + compound 3 mg/kg, last three minutes of the test
Compound,success in forced swim test,vigor in forced swim test
"NC1CCc2ccccc21 (racemic) [(R,S)-1-aminoindan, reference compound]",some improvement,some improvement

# Tested on: alpha-synuclein-GFP aggregation in yeast strain 2AS
# Test: not given
# Format: cell-based
# Conditions: 1 micromolar compound, 5 mM galactose
# Experimental: as §2
# For Analysis of AS-GFP distribution, the 2AS strain was grown overnight in drop-out media. After normalization of culture density, galactose was administered to a final concentration of 5 mM. […] For the yeast recovery assay, yeast cells were obtained after 6 hours induction with 5 mM galactose concentration, washed in galactose free media and the compounds were added to a final concentration of 1 micromolar in a 2 mL reaction mixture. The culture was incubated at 30° C. for 3, 6, and 9 hour intervals. Images were obtained at each interval using an Olympus Infinity (BX51) fluorescence microscope at 100× magnification.
Compound,time at which complete filling of the cell with AS-GFP occurs [h],formation of foci delayed until (time after induction) [h]
CC(N)Cc1ccccc1 (stereo not shown) [amphetamine],6,
"CN1CCC[C@H]1c1cccnc1 (racemic) [(R,S)-nicotine, reference compound]",,9
"NC1CCc2ccccc21 (racemic) [(R,S)-1-aminoindan, reference compound]",,9

# Same assay, conditions: 1 micromolar compound, 5 mM galactose, up to 12 hours
row,Compound,AS-GFP foci / fluorescence pattern
1,CC(N)Cc1ccccc1 (stereo not shown) [amphetamine],larger foci appear at earlier times

# Molecular target: T1, alpha-synuclein
# Test: Nanopore analysis of alpha-synuclein (blockade current histograms)
# Format: binding
# Conditions: FIGS. 9A-9D
# Experimental: The bifunctional molecules were characterized by four different methods. […] If the compound causes a more compact conformation, then the alpha-synuclein can no longer translocate and it simply bumps into the pore giving rise to a very small change in the blockade current.^44-46
# as §1
row,Compound,nanopore profile of additional bifunctional molecules
1,Cn1c(=O)c2c(ncn2CCN2CCCC2c2cccnc2)n(C)c1=O (racemic) [Compound C7-2-N],"bumping peaks, but have a shifted translocation peak visible as well"
2,CN(CCCCCCCc1nc2c(c(=O)n(C)c(=O)n2C)n1C)C(=N)NC(=N)N.Cl [Compound C8-7-M],significant bumping peaks
3,Cn1c(=O)c2c(ncn2CCCCNC2CCc3ccccc32)n(C)c1=O (stereo not shown) [Compound C7-4-I],"bumping peaks, but have a shifted translocation peak visible as well"
4,Cn1c(=O)c2c(ncn2CCCCCCCCNC2CCc3ccccc32)n(C)c1=O (stereo not shown) [Compound C7-8-I],"bumping peaks, but have a shifted translocation peak visible as well"
5,Cn1c(=O)c2c(ncn2CCCCN2CCCC2c2cccnc2)n(C)c1=O (racemic) [Compound C7-4-N],"bumping peaks, but have a shifted translocation peak visible as well"
6,Cn1c(=O)c2c(ncn2CCn2cnc3c2c(=O)n(C)c(=O)n3C)n(C)c1=O [Compound C7-2-C7],significant bumping peaks

# Same assay, conditions: method not stated for these compounds
row,Compound,binding to alpha-synuclein
1,Cn1c(=O)c2c(nc(CCCCCCCCNC3CCc4ccccc43)n2C)n(C)c1=O (racemic) [Compound C8-8-I],bind to alpha-synuclein
2,Cn1c(=O)c2c(nc(CCCCCCCCN3CCCC3c3cccnc3)n2C)n(C)c1=O (racemic) [Compound C8-8-N],bind to alpha-synuclein
